Data from patent US7250410B2, “Cyclic nucleotide phosphodiesterase inhibitors, preparation and uses thereof” (Via Pharmaceuticals, Inc., priority 2001, dated 2007).

These compounds were tested against PDE4 (assay: Inhibition of PDE4, radioenzymatic phosphodiesterase assay). Conditions: Table 1, formula (III); 1 μM cyclic AMP.
Format: biochemical, bovine
In short: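 PDE4 partially purified from bovine aortic media by 105,000 g centrifugation and anion-exchange chromatography with an NaCl gradient. Activity measured radioenzymatically: product nucleoside separated from nucleotides by anion exchange and counted by liquid scintillation.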

With `CCCCCC#Cc1ccc(C2=NN(C)C(=O)Cc3cc(OC)c(OC)cc32)cc1` [IIIax, 1-[4-(heptyn-1-yl)phenyl]-7,8-dimethoxy-3-methyl-3,5-dihydro-4H-2,3-benzodiazepin-4-one] as the compound, how does the IC50 read?
The IC50 was 7.8 µM.

With `COc1cc2c(cc1OC)C(c1ccc(-c3cccc(C(F)(F)F)c3)cc1)=NN(C)C(=O)C2` [IIIap, 1-[4-[3-(trifluoromethyl)phenyl]phenyl]-7,8-dimethoxy-3-methyl-3,5-dihydro-4H-2,3-benzodiazepin-4-one] as the compound, how does the IC50 read?
Its IC50 is 1.9 µM.

Same assay, conditions: Table 2, formula (XXII); compound at 10 μM

`CCCCN(Cc1ccccc1)C(=O)OC1N=C(c2ccccc2)c2cc(OC)c(OC)cc2NC1=O` [XXIIav, (7,8-dimethoxy-5-phenyl-2-oxo-2,3-dihydro-1H-1,4-benzodiazepin-3-yl)benzyl(S)-butylcarbamate] was tested. Which “PDE4 percentage inhibition at 10 μM” value did it give?
Its value is 23%.

For `COc1cc2c(cc1OC)C(c1ccccc1)=NC(C)C(=O)N2` (stereo not drawn) [XXIIaq, 7,8-dimethoxy-3-methyl-5-phenyl-1,3-dihydro-2H-1,4-benzodiazepin-2-one], which “PDE4 percentage inhibition at 10 μM” value is on record?
The value was 26.2%.

With `COc1cc2c(cc1OC)C(c1ccccc1)=NC(CCSC)C(=O)N2` (stereo not drawn) [XXIIat, 7,8-dimethoxy-3-(2-methylthioethyl)-5-phenyl-1,3-dihydro-2H-1,4-benzodiazepin-2-one] as the compound, how does the “PDE4 percentage inhibition at 10 μM” value read?
The value was 29%.

With `COc1cc2c(cc1OC)C(c1ccccc1)=NCC(=O)N2` [XXIIaa, 7,8-dimethoxy-5-phenyl-1,3-dihydro-2H-1,4-benzodiazepin-2-one] as the compound, how does the “PDE4 percentage inhibition at 10 μM” value read?
The value was 25.8%.

Same assay, conditions: Table 3, formula (II); 1 μM cyclic AMP

How did the IC50 turn out when `CCOc1cc2c(cc1OCC)N(Cc1ccccc1)C(=O)CN=C2c1ccccc1` [IIbj, 1-benzyl-7,8-diethoxy-5-phenyl-1,3-dihydro-2H-1,4-benzodiazepin-2-one] was run?
The IC50 was 6.5 µM.

With `CCN1C(=O)C(Cc2cccc(-c3ccccc3)c2)N=C(c2ccccc2)c2cc(OC)c(OC)cc21` (stereo not drawn) [IIcu, 3-(1,1′-biphenyl-3-ylmethyl)-1-ethyl-7,8-dimethoxy-5-phenyl-1,3-dihydro-2H-1,4-benzodiazepin-2-one] as the compound, how does the IC50 read?
Its IC50 is 4.8 µM.

With `CCOc1cc2c(cc1OC)C(c1ccccc1)=NC(Cc1ccccc1)C(=O)N2CC` (stereo not drawn) [IIbb, 3-benzyl-8-ethoxy-1-ethyl-7-methoxy-5-phenyl-1,3-dihydro-2H-1,4-benzodiazepin-2-one] as the compound, how does the IC50 read?
Its IC50 is 3.13 µM.

With `CCN1C(=O)C(Cc2cc(Cl)ccc2Cl)N=C(c2ccccc2)c2cc(OC)c(OC)cc21` (stereo not drawn) [IIdi, 3-(2,5-dichlorobenzyl)-7,8-dimethoxy-1-ethyl-5-phenyl-1,3-dihydro-2H-1,4-benzodiazepin-2-one] as the compound, how does the IC50 read?
Its IC50 is 8.15 µM.

Same assay, conditions: Table 3, formula (II); compound at 10 μM

With `COc1cc2c(cc1OC)N(C)C(=O)CN=C2C#Cc1ccccc1` [IIat, 7,8-dimethoxy-1-methyl-5-(2-phenylethynyl)-1,3-dihydro-2H-1,4-benzodiazepin-2-one] as the compound, how does the “PDE4 percentage inhibition at 10 μM” value read?
The value was 3.9%.

For `CCN1C(=O)C(Cc2ccc(C)cc2)N=C(c2ccccc2)c2cc(OC)c(OC)cc21` (stereo not drawn) [IIdd, 1-ethyl-7,8-dimethoxy-3-(4-methylbenzyl)-5-phenyl-1,3-dihydro-2H-1,4-benzodiazepin-2-one], which “PDE4 percentage inhibition at 10 μM” value is on record?
Its value is 31.5%.

Which “PDE4 percentage inhibition at 10 μM” value does the source give for `CCN1C(=O)C(Cc2ccc(Cl)cc2Cl)N=C(c2ccccc2)c2cc(OC)c(OC)cc21` (stereo not drawn) [IIco, 3-(2,4-dichlorobenzyl)-7,8-dimethoxy-1-ethyl-5-phenyl-1,3-dihydro-2H-1,4-benzodiazepin-2-one] here?
The value was 34.3%.

`CCN1C(=O)C(Cc2cccc(CN)c2)N=C(c2ccccc2)c2cc(OC)c(OC)cc21` (stereo not drawn) [IIct, 3-[3-(aminomethyl)benzyl]-1-ethyl-7,8-dimethoxy-5-phenyl-1,3-dihydro-2H-1,4-benzodiazepin-2-one] was tested. Which “PDE4 percentage inhibition at 10 μM” value did it give?
Its value is 18%.

Same assay, conditions: Table 3, formula (II); compound at 10 μM; 10 µM

`CCN1C(=O)C(Cc2ccc(Cl)cc2)N=C(c2ccccc2)c2cc(OC)c(OC)cc21` (stereo not drawn) [IIcn, 3-(4-chlorobenzyl)-1-ethyl-7,8-dimethoxy-5-phenyl-1,3-dihydro-2H-1,4-benzodiazepin-2-one] was tested. Which “PDE4 percentage inhibition at 10 μM” value did it give?
Its value is 45%.
